Several values for one entry are separate records, joined by “and”; a condition that tells them apart may be missing. Equal entries are not always repeated.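 Each compound was tested at five concentrations against cells in 96-well plates for 48 hours. GI50 = concentration required for 50% inhibition of growth. TGI denotes the concentration required for complete inhibition of growth.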
How the values were obtained:
Test in all cases: NCI tumour cell line growth inhibition, 48 h
HOP-62 NSCLC = tested on: HOP-62 NSCLC
NCI-H460 lung = tested on: NCI-H460 lung
NCI-H226 lung = tested on: NCI-H226 lung
K-562 leukemia = tested on: K-562 leukemia
SK-MEL-5 melanoma = tested on: SK-MEL-5 melanoma
MCF7 breast = tested on: MCF7 breast
DU-145 prostate = tested on: DU-145 prostate
HT29 colon = tested on: HT29 colon
UACC-62 melanoma = tested on: UACC-62 melanoma
A549 NSCLC = tested on: A549 NSCLC

Compound | GI50 (HOP-62 NSCLC) [µM] | TGI (HOP-62 NSCLC) | GI50 (NCI-H460 lung) [µM] | TGI (NCI-H460 lung) | GI50 (NCI-H226 lung) [µM] | TGI (NCI-H226 lung) | GI50 (K-562 leukemia) [µM] | TGI (K-562 leukemia) [µM] | GI50 (SK-MEL-5 melanoma) [µM] | TGI (SK-MEL-5 melanoma) | GI50 (MCF7 breast) [µM] | TGI (MCF7 breast) | GI50 (DU-145 prostate) [µM] | TGI (DU-145 prostate) | GI50 (HT29 colon) [µM] | TGI (HT29 colon) | GI50 (UACC-62 melanoma) [µM] | TGI (UACC-62 melanoma) | GI50 (A549 NSCLC) [µM] | TGI (A549 NSCLC)
Nc1ccc(C#Cc2cncnc2Nc2ccc(OCc3cccc(F)c3)c(Cl)c2)cc1 | > 17.3 | > 25 µM | 15.7 | > 25 µM | 10.6 | > 25 µM | 11.4 | > 25 | > 15.8 | > 25 µM | 11.9 | > 25 µM | > 18 | > 25 µM | 10.1 | > 25 µM | 19.4 | > 25 µM | 8.58 | > 25 µM
COC(=O)c1ccccc1NC(=O)C(=O)CC(=O)c1ccccc1NC1=CC(=O)C(=O)c2ccccc21 | – | > 74.8 µM | – | 65.4 µM | – | 49.7 µM | – | > 100 | – | 14.2 µM | – | 25.5 µM | – | > 53.8 µM | – | > 74.9 µM | – | 24.5 µM | – | 41 µM
C(CCc1nnc2c(n1)CCCC2)Cc1nnc2c(n1)CCCC2 | – | > 100 µM | – | > 100 µM | – | > 100 µM | – | > 100 | – | > 100 µM | – | > 100 µM | – | > 100 µM | – | > 100 µM | – | > 100 µM | – | > 100 µM
COC(=O)c1ccc(=O)c2nc3/c(=C/O)c(O)cc(=O)c3[nH]c12 | 0.461 | 18.7 µM and 16.2 µM | 0.357 | 23.8 µM and 19.7 µM | 0.726 | 12.2 µM and 12.8 µM | 0.372 | > 100 | 1.56 | 9.1 µM and 13.5 µM | 0.652 | 17.5 µM and 22.8 µM | – | 16.5 µM and 17.6 µM | 1.03 | > 39.8 µM and 28.5 µM | 1.01 | 7.26 µM and 7.01 µM | 0.514 | 14.3 µM and 45 µM
O=c1cccc(C#Cc2ccccc2)o1 | 4.63 | 15.4 µM | 3.91 | > 100 µM | 13.2 | > 36.3 µM | 40.4 | > 100 | 2.51 | 9.59 µM | 4.37 | > 100 µM | 7.74 | > 68.6 µM | 14.6 | > 100 µM | 6.32 | 19.7 µM | 11.1 | > 90.9 µM
Nc1nc2ccc([C@@H]3Nc4ccc5[nH]ncc5c4[C@H]4[C@H]5CCC(C5)[C@H]43)cc2s1 | 1.14 | 2.9 µM | 0.81 | 2.32 µM | 1.91 | 5.54 µM | 0.328 | 5.87 | 1.66 | 13 µM | 0.412 | 1.73 µM | 1.63 | 5.78 µM | 0.435 | 11 µM | 1.51 | 3.05 µM | 0.994 | 3.98 µM
O=C1/C(=C/c2ccccc2)SC(=Nc2ccccc2)N1Nc1ccccc1 | 23.4 | > 100 µM | 15.9 | 57.3 µM | 10.9 | 30.5 µM | 6.08 | > 100 | 14.4 | 28.8 µM | 7.91 | 83.5 µM | 32.2 | > 100 µM | 10.8 | > 100 µM | 10.3 | 39.4 µM | 12 | > 100 µM
COc1ccc(-c2cnc(-c3ccc(F)cc3)[nH]2)cc1 | 8.25 | 21.4 µM | 8.37 | 29.6 µM | 11 | > 62.3 µM | 10.3 | > 55.1 | 7.81 | 20.7 µM | 1.95 | 6.93 µM | 2.59 | 7.59 µM | 3.19 | > 32.8 µM | 19.4 | > 50 µM | 5.8 | 16.1 µM
Cc1cc(O)c2c(c1)C(=O)c1cc(O)cc(O)c1C2=O | – | 44.3 µM | – | > 78.4 µM | – | > 70.9 µM | 28 | > 100 | – | 24.4 µM | 27.7 | > 100 µM | 46.2 | > 100 µM | – | > 100 µM | 11.2 | 38.1 µM | – | > 100 µM
Cc1cc(=O)oc2cc(OC(=O)Nc3ccc(Cl)c(Cl)c3)ccc12 | – | 63.2 µM | – | 89.6 µM | – | 46.6 µM | – | 28.2 | – | 29.7 µM | – | > 100 µM | – | 90.5 µM | – | 75.4 µM | – | 35.1 µM | – | 82.1 µM
COC(=O)[C@]12CC[C@@H](C)[C@H](C)[C@@H]1C1=CC[C@@H]3[C@@]4(C)C(C=O)=C[C@@](C)(COC(C)=O)[C@@H]4[C@H](O)C[C@@]3(C)[C@]1(C)CC2 | 2.74 | 6.04 µM | 1.89 | 3.9 µM | 1.95 | 4.8 µM | 3.57 | 9.77 | 1.66 | 3.19 µM | 1.94 | 5.51 µM | 1.91 | 3.93 µM | 1.92 | 3.97 µM | 1.76 | 4.1 µM | 3.29 | 12.3 µM
O=S(=O)(NC(=S)Nc1ccccc1)c1ccc(N2N=C3c4ccccc4CC3C2c2cccs2)cc1 (stereo not drawn) | 20.3 | 45.7 µM | 24.6 | > 100 µM | 27.2 | 55.4 µM | 31.3 | 56.5 | 20.8 | 44.7 µM | 3.7 | > 100 µM | 17.8 | 41.5 µM | 36.2 | > 100 µM | 18.5 | 37.3 µM | 15.7 | > 100 µM
C=C1C(=O)O[C@H]2[C@H]1CC/C(COC(=O)C(=O)c1c[nH]c3ccc(OC)cc13)=C\CC[C@@]1(C)O[C@@H]21 | 6.49 | 11.9 µM | 10.2 | 24.8 µM | 5.84 | 9.99 µM | > 100 | > 100 | 5.48 | 8.72 µM | 3.69 | 16.9 µM | 7.99 | 17 µM | 2.65 | 6.35 µM | 3.21 | 7.49 µM | 8.64 | 17.3 µM

— PubChem BioAssay (NCI)
